These results are taken from patent US20090297576A1, “Local Delivery of PAR-1 Antagonists to Treat Vascular Complications” (MEDTRONIC VASCULAR, INC., priority 2008, published 2009).

The nature of the series: solubility of SCH-530348 in the coating solvent ethanol. It is filed as physicochemical. The settings on record: stent coating solution. The procedure: In the following Example, ethanol is chosen as the solvent of choice. The PAR-1 antagonist is SCH-530348. […] Persons having ordinary skill in the art of polymer chemistry can easily pair the appropriate solvent system to the polymer-drug combination and achieve optimum results with no more than routine experimentation.
250 mg of SCH-530348 is carefully weighed and added to a small neck glass bottle containing 2.8 ml of ethanol. The SCH-530348-ethanol suspension is then thoroughly mixed until a clear solution is achieved.

Take `CCOC(=O)N[C@@H]1CC[C@@H]2[C@@H](C1)C[C@H]1C(=O)O[C@H](C)[C@H]1[C@H]2/C=C/c1ccc(-c2cccc(F)c2)cn1` [SCH-530348]: the solubility in ethanol entry is “freely soluble”.
